28 compounds from patent US8481571B2, “Anti-coronavirus compounds” (Academia Sinica, priority 2004, dated 2013) can be followed below.

By EC50 is commonly meant the concentration giving half of the maximal effect. A high value points to lower potency in that assay.

Data set [1] relates to severe acute respiratory syndrome virus. In words: organism not typed. Format: cell-based. Conditions: Vero C1008.

`Cc1cccc(C)c1OCC(=O)N[C@@H](Cc1ccccc1)C[C@H](O)[C@H](Cc1ccccc1)NC(=O)[C@H](CC(C)C)NC(=O)COc1ccc2ccccc2c1` [Compound 35] had an EC50 in data set [1] of 0.85 to 100 µM.
Same read-out and setting: in the case of `COC(=O)C1[C@H]2C[C@H]3c4[nH]c5ccccc5c4CCN3C[C@H]2CC[C@@H]1O` (stereo partly shown) [Compound 23] it was 0.85 to 100 µM; in that of `CC1(C)CC2C3=CCC4[C@@](C)(CCC5[C@@H](O)C(O[C@@H]6OC(CO)[C@@H](O)[C@@H](O)C6O[C@@H]6OC(CO)[C@@H](O)[C@@H](O)C6O)CC[C@@]54C)C3CC[C@@]2(C)[C@H](O)C1` (stereo partly shown) [Compound 18], 0.85 to 100 µM; in that of `Cc1cccc(C(=O)N[C@@H](CC(C)C)C(=O)N[C@@H](Cc2ccccc2)[C@@H](O)C[C@H](Cc2ccccc2)NC(=O)COc2c(C)cccc2C)c1` [Compound 27], 0.85 to 100 µM.
Compound `COc1ccc(/C=C/C(=O)N[C@@H](CC(C)C)C(=O)N[C@@H](Cc2ccccc2)[C@@H](O)C[C@H](Cc2ccccc2)NC(=O)COc2c(C)cccc2C)cc1` [Compound 32] registered an EC50 in data set [1] of 0.85 to 100 µM.
As to `CCCCCC12C3=C(c4ccccc4)C(=O)O[C@@H]1CC[C@@H]2C3` (stereo partly shown) [Compound 4], the 50% effective concentration (EC50) in data set [1] lay within 0.85 to 100 µM. For the same compound, in the data set on Vero E6 cells, the “inhibitory effect on cell growth” value was “none of them exhibited inhibitory effect on cell growth”.
In turn, `CC(C)[C@H](NC(=O)[C@H](C)NC(=O)OCc1ccccc1)C(=O)N[C@@H](Cc1ccccc1)[C@@H](O)[C@H](O)[C@H](Cc1ccccc1)NC(=O)[C@@H](NC(=O)[C@H](C)NC(=O)OCc1ccccc1)C(C)C` [Compound 2] came in with an EC50 in data set [1] of 0.85 to 100 µM. The “inhibitory effect on cell growth” value in the data set with Vero E6 cells is recorded as “none of them exhibited inhibitory effect on cell growth”.
For the compound `CC(C)[C@H](NC(=O)OCc1ccccc1)C(=O)N[C@@H](Cc1ccccc1)[C@@H](O)[C@H](O)[C@H](Cc1ccccc1)NC(=O)[C@@H](NC(=O)OC(C)(C)C)C(C)C` [Compound 1], the EC50 in data set [1] lay within 0.85 to 100 µM. Further, the “inhibitory effect on cell growth” value with Vero E6 cells is listed as “none of them exhibited inhibitory effect on cell growth”.
As for `Cc1cccc(C)c1OCC(=O)N[C@@H](Cc1ccccc1)C[C@H](O)[C@H](Cc1ccccc1)NC(=O)[C@H](CC(C)C)NC(=O)C1=CCOc2ccc(Cl)cc21` [Compound 34], in data set [1], the EC50 fell in the range of 0.85 to 100 µM.
Regarding `COC(=O)[C@H]1[C@H]2C[C@H]3c4[nH]c5cc(OC)ccc5c4CCN3C[C@H]2C[C@@H](OC(=O)c2cc(OC)c(OC)c(OC)c2)[C@@H]1OC` [Compound 21], in data set [1], the EC50 fell in the range of 0.85 to 100 µM.
`Cc1cccc(C)c1OCC(=O)N[C@@H](Cc1ccccc1)C[C@H](O)[C@H](Cc1ccccc1)NC(=O)[C@H](CC(C)C)NC(=O)CN1C(=O)CSC1=S` [Compound 30] showed an EC50 in data set [1] of 0.85 to 100 µM.
In turn, `Cc1cccc(C)c1OCC(=O)N[C@@H](Cc1ccccc1)C[C@H](O)[C@H](Cc1ccccc1)NC(=O)[C@H](CC(C)C)NC(=O)c1ccc(C(F)(F)F)cc1` [Compound 31] returned an EC50 in data set [1] of 0.85 to 100 µM.
Compound `COC(=O)C1=COC[C@H]2CN3CCc4c([nH]c5ccccc45)[C@@H]3C[C@H]12` [Compound 20] had an EC50 in data set [1] of 0.85 to 100 µM.
Take `Cc1cccc(C)c1OCC(=O)N[C@@H](Cc1ccccc1)C[C@H](O)[C@H](Cc1ccccc1)NC(=O)[C@H](CC(C)C)NC(=O)c1cc2ccccc2[nH]1` [Compound 29]: the EC50 in data set [1] was in the range of 0.85 to 100 µM.
For `COC(=O)[C@H]1[C@H]2C[C@@H]3c4[nH]c5cc(OC)ccc5c4CCN3C[C@H]2C[C@@H](OC(=O)c2cc(OC)c(OC)c(OC)c2)[C@@H]1OC` [Compound 13], in data set [1], the EC50 fell in the range of 0.85 to 100 µM. Further, the “inhibitory effect on cell growth” value with Vero E6 cells was “none of them exhibited inhibitory effect on cell growth”.
The compound `COC(=O)[C@H]1[C@H]2C[C@H]3c4[nH]c5ccccc5c4CCN3C[C@@H]2CC[C@@H]1O` [Compound 22] had an EC50 in data set [1] of 0.85 to 100 µM.
`CC(C)=CCC[C@](C)(O)[C@H]1CC[C@@H]2[C@@H]1CC[C@H]1[C@@]2(C)CC[C@H]2C(C)(C)C(=O)CC[C@]12C` [Compound 6] came in with an EC50 in data set [1] of 0.85 to 100 µM. In the data set with Vero E6 cells, the “inhibitory effect on cell growth” value was “none of them exhibited inhibitory effect on cell growth”.
`Cc1cccc(C)c1OCC(=O)N[C@@H](Cc1ccccc1)C[C@H](O)[C@H](Cc1ccccc1)NC(=O)[C@H](CC(C)C)NC(=O)c1ccc([N+](=O)[O-])o1` [Compound 25] yielded an EC50 in data set [1] of 0.85 to 100 µM.
As to `COC(=O)CCCN1C[C@H](OCc2ccccc2)[C@@H](OCc2ccccc2)[C@H](OCc2ccccc2)[C@H]1COCc1ccccc1` [Compound 9], the EC50 in data set [1] was 0.85 to 100 µM. In addition, the “inhibitory effect on cell growth” value in the data set with Vero E6 cells is given as “none of them exhibited inhibitory effect on cell growth”.
Consider `O[C@H]1[C@H](O)[C@@H](OCc2cccc(F)c2)CNC[C@@H]1OCc1cccc(F)c1` [Compound 15], for which, in data set [1], the EC50 fell in the range of 0.85 to 100 µM. The “inhibitory effect on cell growth” value in the data set on Vero E6 cells is “none of them exhibited inhibitory effect on cell growth”.
The corresponding values for `CC[C@H]1OC(=O)[C@H](C)C(=O)[C@H](C)[C@@H](O[C@@H]2C[C@H](C)C[C@H](N(C)C)[C@H]2O)[C@@](C)(OC)C[C@@H](C)CN(C(=O)CCCn2cc(-c3ccc(C(F)(F)F)cc3)nn2)[C@H](C)[C@@H](O)[C@]1(C)O` [Compound 11] are 0.85 to 100 µM and “none of them exhibited inhibitory effect on cell growth”.
In the case of `CC1(C)CCC2(C(=O)O)CC[C@@]3(C)C(=CCC4[C@@]5(C)CCC(O[C@@H]6OC(O)[C@@H](O)[C@@H](O)C6O[C@@H]6OC(O)[C@@H](O)[C@@H](O)C6O)C(C)(CO)C5CC[C@]43C)C2C1` (stereo partly shown) [Compound 16], the EC50 in data set [1] was in the range of 0.85 to 100 µM.
The compound `COC(=O)[C@H]1[C@H]2C[C@@H]3c4[nH]c5cc(OC)ccc5c4CCN3C[C@H]2C[C@@H](OC(=O)/C=C/c2cc(OC)c(OC)c(OC)c2)[C@@H]1OC` [Compound 19] yielded an EC50 in data set [1] of 0.85 to 100 µM.
In the case of `CC(C)=CCC[C@](C)(CO[C@@H]1OC(CO[C@@H]2OC(CO)[C@@H](O)[C@@H](O)C2O)[C@@H](O)[C@@H](O)C1O)C1CC[C@@]2(C)C1C(O)CC1[C@@]3(C)CCC(O[C@@H]4OC(CO)[C@@H](O)[C@@H](O)C4O[C@@H]4OC(CO)[C@@H](O)[C@@H](O)C4O)C(C)(C)C3CC[C@]12C` (stereo partly shown) [Compound 17], the EC50 in data set [1] was in the range of 0.85 to 100 µM.
Compound `COC(=O)[C@@H]1[C@H]2C[C@H]3c4[nH]c5ccccc5c4CCN3C[C@@H]2CC[C@@H]1O` [Compound 24] came in with a 50% effective concentration (EC50) in data set [1] of 0.85 to 100 µM.
As for `Cc1cccc(C)c1OCC(=O)N[C@@H](Cc1ccccc1)C[C@H](O)[C@H](Cc1ccccc1)NC(=O)[C@H](CC(C)C)NC(=O)CSc1ccccn1` [Compound 28], the EC50 in data set [1] lay in the range of 0.85 to 100 µM.
As for `Cc1cccc(C)c1OCC(=O)N[C@@H](Cc1ccccc1)C[C@H](O)[C@H](Cc1ccccc1)NC(=O)[C@H](CC(C)C)NC(=O)CCNC(=O)OC(C)(C)C` [Compound 33], the concentration for a half-maximal effect (EC50) in data set [1] was in the range of 0.85 to 100 µM.
The compound `CCCCCCC1=C2C[C@H]3C(C)(C)C[C@@H](OC1=O)[C@@]23C` [Compound 3] had a 50% effective concentration (EC50) in data set [1] of 0.85 to 100 µM. For the same compound, the “inhibitory effect on cell growth” value in the data set on Vero E6 cells was “none of them exhibited inhibitory effect on cell growth”.
